biological target: VMAT2 (human platelet homogenate) (Homo sapiens (Human), UniProt Q05940); experiment: Human VMAT2 Ki, slightly modified competition binding procedure (Table 11); conditions: 10 nM 3H-dihydrotetrabenazine;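 also: competition binding with 90 min incubation at 25 °C, after which filter-retained radioligand was measured by scintillation counting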
Sequence (Q05940 whole entry): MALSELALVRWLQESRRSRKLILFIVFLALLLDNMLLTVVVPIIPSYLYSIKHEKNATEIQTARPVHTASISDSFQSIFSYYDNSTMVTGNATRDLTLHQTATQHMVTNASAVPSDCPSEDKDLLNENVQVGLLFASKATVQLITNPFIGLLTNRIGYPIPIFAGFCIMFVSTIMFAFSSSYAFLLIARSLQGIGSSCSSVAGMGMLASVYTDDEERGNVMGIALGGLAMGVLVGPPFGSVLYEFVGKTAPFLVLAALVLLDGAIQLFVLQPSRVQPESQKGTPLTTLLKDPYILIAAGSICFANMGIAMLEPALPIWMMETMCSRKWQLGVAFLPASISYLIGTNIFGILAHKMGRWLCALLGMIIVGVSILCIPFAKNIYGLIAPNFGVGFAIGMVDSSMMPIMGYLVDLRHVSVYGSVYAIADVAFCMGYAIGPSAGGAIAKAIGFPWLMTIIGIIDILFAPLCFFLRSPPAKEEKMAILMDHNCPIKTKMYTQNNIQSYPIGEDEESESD
Procedure: Following incubation at 25° C. for 90 minutes, bound radioligand was collected by rapid filtration onto GF/B glass fiber filters using a Unifilter-96 Harvester (PerkinElmer). Filter plates were pre-treated with 0.1% polyethylenimine and allowed to dry overnight, and following harvesting the filter plates were washed with 800 d VMAT2 binding buffer. Bound radioligand was quantified by scintillation counting using a Topcount NXT (PerkinElmer).

Row | SMILES | Ki [µM]
1 | COc1cc2c(cc1OC)[C@H]1C[C@@H](COC(=O)C3C(C)(C)C3(C)C)[C@H](CC(C)C)CN1CC2 [Compound 2-38, [(2R,3S,11bR)-9,10-dimethoxy-3-(2-methylpropyl)-1H,2H,3H,4H,6H,7H,11bH-pyrido[2,1-a]isoquinolin-2-yl]methyl 2,2,3,3-tetramethylcyclopropane-1-carboxylate] | 0.01 to 0.5
2 | COc1cc2c(cc1OC)[C@H]1C[C@@H](COC(=O)CCC(N)=O)[C@H](CC(C)C)CN1CC2 [Compound 2-1, [(2R,3S,11bR)-9,10-dimethoxy-3-(2-methylpropyl)-1H,2H,3H,4H,6H,7H,11bH-pyrido[2,1-a]isoquinolin-2-yl]methyl 3-carbamoylpropanoate] | < 0.01
3 | COc1cc2c(cc1OC)[C@H]1C[C@@H](COC(=O)[C@@H]3CCN(Cc4ccccc4)C3)[C@H](CC(C)C)CN1CC2 [Compound 2-6, [(2R,3S,11bR)-9,10-dimethoxy-3-(2-methylpropyl)-1H,2H,3H,4H,6H,7H,11bH-pyrido[2,1-a]isoquinolin-2-yl]methyl (3R)-1-benzylpyrrolidine-3-carboxylate] | < 0.01
4 | COc1cc2c(cc1OC)[C@H]1C[C@@H](COC(=O)[C@H]3CCCC[C@@H]3N)[C@H](CC(C)C)CN1CC2 [Compound 4-25, [(2R,3S,11bR)-9,10-dimethoxy-3-(2-methylpropyl)-1H,2H,3H,4H,6H,7H,11bH-pyrido[2,1-a]isoquinolin-2-yl]methyl (1S,2S)-2-aminocyclohexane-1-carboxylate] | 0.01 to 0.5
5 | COc1cc2c(cc1OC)[C@H]1C[C@@H](COC(=O)CN3C[C@@H](C)O[C@@H](C)C3)[C@H](CC(C)C)CN1CC2 [Compound 2-8, [(2R,3S,11bR)-9,10-dimethoxy-3-(2-methylpropyl)-1H,2H,3H,4H,6H,7H,11bH-pyrido[2,1-a]isoquinolin-2-yl]methyl 2-[(2R,6S)-2,6-dimethylmorpholin-4-yl]acetate] | < 0.01
6 | COc1cc2c(cc1OC)[C@H]1C[C@@H](COC(=O)N(C)C(C)C(=O)O)[C@H](CC(C)C)CN1CC2 (stereo partly drawn) [Compound 5-28, 2-[({[(2R,3S,11bR)-9,10-dimethoxy-3-(2-methylpropyl)-1H,2H,3H,4H,6H,7H,11bH-pyrido[2,l-a]isoquinolin-2-yl]methoxy}carbonyl)(methyl)amino]propanoic acid] | > 0.5
7 | COc1cc2c(cc1OC)[C@H]1C[C@@H](COC(=O)CCn3nccc3C)[C@H](CC(C)C)CN1CC2 [Compound 2-29, [(2R,3S,11bR)-9,10-dimethoxy-3-(2-methylpropyl)-1H,2H,3H,4H,6H,7H,11bH-pyrido[2,1-a]isoquinolin-2-yl]methyl 3-(5-methyl-1H-pyrazol-1-yl)propanoate] | 0.01 to 0.5

More lines, now with the values ahead:

Row | Ki [µM] | SMILES
8 | < 0.01 | COc1cc2c(cc1OC)[C@H]1C[C@@H](COC(=O)N3CCN(C4CCCCC4)CC3)[C@H](CC(C)C)CN1CC2 [Compound 5-18, [(2R,3S,11bR)-9,10-dimethoxy-3-(2-methylpropyl)-1H,2H,3H,4H,6H,7H,11bH-pyrido[2,1-a]isoquinolin-2-yl]methyl 4-cyclohexylpiperazine-1-carboxylate]
9 | < 0.01 | COc1cc2c(cc1OC)[C@H]1C[C@@H](COC(=O)N3CCO[C@H](C)C3)[C@H](CC(C)C)CN1CC2 [Compound 5-37, [(2R,3S,11bR)-9,10-dimethoxy-3-(2-methylpropyl)-1H,2H,3H,4H,6H,7H,11bH-pyrido[2,1-a]isoquinolin-2-yl]methyl (2R)-2-methylmorpholine-4-carboxylate]
10 | 0.01 to 0.5 | COc1cc2c(cc1OC)[C@H]1C[C@@H](COC(=O)N[C@@H]3CCCC[C@H]3C(=O)O)[C@H](CC(C)C)CN1CC2 [Compound 5-35, (1R,2R)-2-[({[(2R,3S,11bR)-9,10-dimethoxy-3-(2-methylpropyl)-1H,2H,3H,4H,6H,7H,11bH-pyrido[2,1-a]isoquinolin-2-yl]methoxy}carbonyl)amino]cyclohexane-1-carboxylic acid]
